# Experimental data: US11479546B2, “Antimalarial hexahydropyrimidine analogues” (UCB Biopharma SRL, priority 2018, dated 2022)
# Test system: Plasmodium falciparum 3D7
# Assay: P. falciparum 3D7 asexual blood stage assay, Assay Procedure Version 2 (SYBR green readout)
# Type: cell-based
# Conditions: Version 2 of the assay procedure (asterisk *), 72 h incubation in infected erythrocytes, 50,000 nM to 15 nM
# Description: Asexual Blood Stage Assay
# The assay used to measure the effect of test compounds on a bloodstream stage of Plasmodium falciparum 3D7 strain employs SYBR green as the readout. This is a dye that binds to double stranded deoxyribonucleic acid (DNA) with a resulting increase in fluorescence, allowing detection of P. falciparum DNA in infected erythrocytes, and thereby providing a measure of parasite growth and propagation.
# P. falciparum Culture Maintenance
# Erythrocytes (A+blood) were prepared for both parasite culture and assay by washing 4 times with incomplete media (15.9 g RPMI 1640 (25 mM HEPES, L-glutamine), 1 g NaHCO3, 2 g glucose, 400 μL gentacin (500 mg/mL), 2 mL hypoxanthine solution (13.6 g/L in 0.1M NaOH pH 7.3) in 1 litre of media). The cells were centrifuged at 1800 g for 5 minutes, before decanting the supernatant and re-suspending in fresh incomplete media. On the final wash, the cells were re-suspended in complete media (incomplete media with 5 g/L AlbumaxII), and centrifuged at 1800 g for 3 minutes. This cell sediment was treated as 100% haematocrit.
# P. falciparum 3D7 was cultured in erythrocytes at 5% haematocrit in complete media at 37° C. (1% O2, 3% CO2, balance N2). Cultures were split on a weekly basis to achieve a 1% parasitaemia in erythrocites at 5% haematocrit in fresh media. Culture media is replaced by fresh media every other day (2 times during the week).
# [formula] where A=% inhibition at bottom; B=% inhibition at top; C=EC50; D=slope; x=inhibitor concentration; and y=% inhibition. […] Assay Procedure—Version 2
# On day 1, test compounds were added to assay plates using Echo dispensing technology ([…] and 20 points titration). 50 nL of each compound dilution was added to 50 μL of culture (5% haematocrit, 0.5% parasitaemia) and incubated for 72 h at 37° C. (1% O2, 3% CO2, balance N2). Final concentrations of test compounds ranged from 50,000 nM to 15 nM, in […].
# On day 4, 10 μL SYBR green (Invitrogen S7563 supplied as 10,000× concentrate in DMSO) pre-diluted to 3× concentrate with Lysis buffer (20 mM Tris pH 7.9, 5% EDTA, 0.16% w/v, 1.6% TX100 v/v) was added to the cultures and incubated in the dark, overnight, at room temperature.
# On day 5, fluorescent signal was measured using a BioTek plate reader (excitation 485 nm, emission 528 nm). All data were processed using IDBS ActivityBase. Raw data were converted into percent inhibition through linear regression by setting the high inhibition control (mefloquine) as 100% and the no inhibition control (DMSO) as 0%. Quality control criteria for passing plates were as follows: Z′>0.5, S:B>3, % CV(no inhibition control)<15. The formula used to calculate Z′ is:
# [formula] where μ denotes the mean; σ denotes the standard deviation; p denotes the positive control; and n denotes the negative control.
# All EC50 curve fitting was undertaken using the following bi-phasic two site dose response using XLfit model 300 (IDBS):
# [formula] where A=100 minus the top of the upper curve 1 and the bottom of lower curve; B=Hill slope; log(C)=IC50 concentration at lower site; log(D)=IC50 concentration at upper site; x=inhibitor concentration; and y=% inhibition.
# [1] = Plasmodium falciparum, 3D7, Erythrocyte, 72 h
IC50 [1] [µM],IC50 [µM],SMILES
2.98,,"C[C@@]1(c2cccc(Nc3ccc(OC(F)F)nc3)c2Cl)CC(=O)N([C@@H]2C[C@H]3CC[C@@H](C2)O3)C(=N)N1 (mixture of isomers) [Example 156, (6S)-6-(2-Chloro-3-{[6-(difluoromethoxy)pyridin-3-yl]-amino}phenyl)-2-imino-6-methyl-3-[(1SR,5RS)-8-oxa-bicyclo[3.2.1]octan-3-yl]-hexahydropyrimidin-4-one]"
3.86,,"Cc1ccc(Nc2cccc([C@]3(C)CC(=O)N([C@@H]4C[C@H]5CC[C@@H](C4)O5)C(=N)N3)c2Cl)cn1 (mixture of isomers) [Example 157, (6S)-6-{2-Chloro-3-[(6-methyl-pyridin-3-yl)amino]phenyl}-2-imino-6-methyl-3-[(1SR,5RS)-8-oxabicyclo[3.2.1]octan-3-yl]-hexahydropyrimidin-4-one]"
0.071,,"C[C@@H]1C[C@H](N2C(=N)N[C@](C)(c3cccc(Nc4ccc(Cl)cc4)c3Cl)CC2=O)CCO1 (relative stereo) [Example 155, (6S)-6-[2-Chloro-3-(4-chloro-anilino)phenyl]-2-imino-6-methyl-3-[(2R*,4R*)-2-methyl-tetrahydropyran-4-yl]-hexahydropyrimidin-4-one]"
0.022,,"C[C@@H]1C[C@H](N2C(=N)N[C@](C)(c3cccc(Nc4ccc(C5CC5)nc4)c3Cl)CC2=O)CCO1 (relative stereo) [Example 198, (6S)-6-{2-Chloro-3-[(6-cyclo-propylpyridin-3-yl)amino]-phenyl}-2-imino-6-methyl-3-[(2R*,4R*)-2-methyltetrahydro-pyran-4-yl]hexahydropyrimidin-4-one]"
0.309,,"C[C@H]1C[C@@H](N2C(=N)N[C@](C)(c3cccc(Nc4ccc(C5CC5)nc4)c3Cl)CC2=O)CCO1 (relative stereo) [Example 199, (6S)-6-{2-Chloro-3-[(6-cyclo-propylpyridin-3-yl)amino]-phenyl}-2-imino-6-methyl-3-[(2S*,4S*)-2-methyltetrahydro-pyran-4-yl]hexahydropyrimidin-4-one]"
0.045,,"C[C@@H]1C[C@H](N2C(=N)N[C@](C)(c3cccc(Nc4ccc(C5CC5)nn4)c3Cl)CC2=O)CCO1 (relative stereo) [Example 200, (6S)-6-{2-Chloro-3-[(6-cyclo-propylpyridazin-3-yl)amino]-phenyl}-2-imino-6-methyl-3-[(2R*,4R*)-2-methyltetrahydro-pyran-4-yl]hexahydropyrimidin-4-one]"
0.102,,"C[C@@H]1C[C@H](N2C(=N)N[C@](C)(c3cccc(Nc4ccc(OCC(F)(F)F)nc4)c3Cl)CC2=O)CCO1 (relative stereo) [Example 201, (6S)-6-(2-Chloro-3-{[6-(2,2,2-trifluoroethoxy)pyridin-3-yl]-amino}phenyl)-2-imino-6-methyl-3-[(2R*,4R*)-2-methyl-tetrahydropyran-4-yl]-hexahydropyrimidin-4-one]"
0.112,,"C[C@@H]1C[C@H](N2C(=N)N[C@](C)(c3cccc(Nc4ccc(OCC(F)(F)F)nn4)c3Cl)CC2=O)CCO1 (relative stereo) [Example 202, (6S)-6-(2-Chloro-3-{[6-(2,2,2-trifluoroethoxy)pyridazin-3-yl]-amino}phenyl)-2-imino-6-methyl-3-[(2R*,4R*)-2-methyl-tetrahydropyran-4-yl]-hexahydropyrimidin-4-one]"
0.057,,"C[C@@H]1C[C@H](N2C(=N)N[C@](C)(c3cccc(Nc4ccc(OCC(F)F)nc4)c3Cl)CC2=O)CCO1 (relative stereo) [Example 203, (6S)-6-(2-Chloro-3-{[6-(2,2-difluoroethoxy)pyridin-3-yl]-amino}phenyl)-2-imino-6-methyl-3-[(2R*,4R*)-2-methyl-tetrahydropyran-4-yl]-hexahydropyrimidin-4-one]"
0.021,,"Cc1ccc(Nc2cccc([C@]3(C)CC(=O)N([C@@H]4CCO[C@H](C)C4)C(=N)N3)c2Cl)cn1 (single isomer, unassigned) [Example 135]"
0.249,,"Cc1ccc(Nc2cccc([C@]3(C)CC(=O)N([C@H]4CCO[C@@H](C)C4)C(=N)N3)c2Cl)cn1 (single isomer, unassigned) [Example 136]"
,0.996,"CC1(C)CC(N2C(=N)N[C@](C)(c3cccc(Nc4ccc(OC(F)F)nc4)c3Cl)CC2=O)CCO1 (single isomer, unassigned) [Example 143, (6S)-6-(2-Chloro-3-{[6-(difluoromethoxy)pyridin-3-yl]-amino}phenyl)-3-[(4R*)-2,2-dimethyltetrahydropyran-4-yl]-2-imino-6-methylhexahydro-pyrimidin-4-one]"
,0.493,"CC1(C)CC(N2C(=N)N[C@](C)(c3cccc(Nc4ccc(OC(F)F)nc4)c3Cl)CC2=O)CCO1 (single isomer, unassigned) [Example 144, (6S)-6-(2-Chloro-3-{[6-(difluoromethoxy)pyridin-3-yl]-amino}phenyl)-3-[(4S*)-2,2-dimethyltetrahydropyran-4-yl]-2-imino-6-methylhexahydro-pyrimidin-4-one]"
,1.26,"Cc1ccc(Nc2cccc([C@]3(C)CC(=O)N(C4CCOC(C)(C)C4)C(=N)N3)c2Cl)cn1 (single isomer, unassigned) [Example 145, (6S)-6-{2-Chloro-3-[(6-methyl-pyridin-3-yl)amino]phenyl}-3-[(4R*)-2,2-dimethyltetrahydro-pyran-4-yl]-2-imino-6-methyl-hexahydropyrimidin-4-one]"
,0.425,"Cc1ccc(Nc2cccc([C@]3(C)CC(=O)N(C4CCOC(C)(C)C4)C(=N)N3)c2Cl)cn1 (single isomer, unassigned) [Example 146, (6S)-6-{2-Chloro-3-[(6-methyl-pyridin-3-yl)amino]phenyl}-3-[(4S*)-2,2-dimethyltetrahydro-pyran-4-yl]-2-imino-6-methyl-hexahydropyrimidin-4-one]"
,0.287,"CC1(C)CC(N2C(=N)N[C@](C)(c3cccc(Nc4ccc(C5CC5)nc4)c3Cl)CC2=O)CCO1 (single isomer, unassigned) [Example 147, (6S)-6-{2-Chloro-3-[(6-cyclo-propylpyridin-3-yl)amino]-phenyl}-3-[(4S*)-2,2-dimethyl-tetrahydropyran-4-yl]-2-imino-6-methylhexahydropyrimidin-4-one]"
0.368,,"CC1(C)CC(N2C(=N)N[C@](C)(c3cccc(Nc4ccc(C(C)(C)C)nc4)c3Cl)CC2=O)CCO1 (single isomer, unassigned) [Example 148, (6S)-6-{3-[(6-tert-Butylpyridin-3-yl)amino]-2-chlorophenyl}-3-[(4S*)-2,2-dimethyltetrahydro-pyran-4-yl]-2-imino-6-methyl-hexahydropyrimidin-4-one]"
1.38,,"CC1(C)CC(N2C(=N)N[C@](C)(c3cccc(Nc4cnc(C(C)(C)C)cn4)c3Cl)CC2=O)CCO1 (single isomer, unassigned) [Example 149, (6S)-6-{3-[(5-tert-Butylpyrazin-2-yl)amino]-2-chlorophenyl}-3-[(4S*)-2,2-dimethyltetrahydro-pyran-4-yl]-2-imino-6-methyl-hexahydropyrimidin-4-one]"
0.622,,"CC1(C)CC(N2C(=N)N[C@](C)(c3cccc(Nc4ccc(C5CC5)nn4)c3Cl)CC2=O)CCO1 (single isomer, unassigned) [Example 150, (6S)-6-{2-Chloro-3-[(6-cyclo-propylpyridazin-3-yl)amino]-phenyl}-3-[(4S*)-2,2-dimethyl-tetrahydropyran-4-yl]-2-imino-6-methylhexahydropyrimidin-4-one]"
0.707,,"CC1(C)CC(N2C(=N)N[C@](C)(c3cccc(Nc4cnc(C5CC5)cn4)c3Cl)CC2=O)CCO1 (single isomer, unassigned) [Example 151, (6S)-6-{2-Chloro-3-[(5-cyclo-propylpyrazin-2-yl)amino]-phenyl}-3-[(4S*)-2,2-dimethyl-tetrahydropyran-4-yl]-2-imino-6-methylhexahydropyrimidin-4-one]"
